Laboratory results published in publication PMC11873638 (Acta Pharmaceutica Sinica. B, 2024).

Tests used:
[1] = system: Caco2, BEAS-2B, H292, and HepG2 cells; assay: Cytotoxicity assays of probe, metabolite and inhibitor; type: cell-based, human; details: all tested mammalian cells
[2] = system: CYP1A1 in Caco2, BEAS-2B, H292, and HepG2 cells; assay: Functional imaging of CYP1A1 in living cells; type: cell-based, human; details: 100 μmol/L, 1 h pre-incubation
[3] = target: T1, HDB-EtCl O-dechloroethylation (CYP1A1) in human liver microsomes (Homo sapiens, UniProt P04798); assay: Chemical inhibition assay of HDB-EtCl O-dechloroethylation in HLMs; details: ABT 500 μmol/L, resveratrol 100 μmol/L, others 1-10 μmol/L
T1 sequence (P04798 1-512): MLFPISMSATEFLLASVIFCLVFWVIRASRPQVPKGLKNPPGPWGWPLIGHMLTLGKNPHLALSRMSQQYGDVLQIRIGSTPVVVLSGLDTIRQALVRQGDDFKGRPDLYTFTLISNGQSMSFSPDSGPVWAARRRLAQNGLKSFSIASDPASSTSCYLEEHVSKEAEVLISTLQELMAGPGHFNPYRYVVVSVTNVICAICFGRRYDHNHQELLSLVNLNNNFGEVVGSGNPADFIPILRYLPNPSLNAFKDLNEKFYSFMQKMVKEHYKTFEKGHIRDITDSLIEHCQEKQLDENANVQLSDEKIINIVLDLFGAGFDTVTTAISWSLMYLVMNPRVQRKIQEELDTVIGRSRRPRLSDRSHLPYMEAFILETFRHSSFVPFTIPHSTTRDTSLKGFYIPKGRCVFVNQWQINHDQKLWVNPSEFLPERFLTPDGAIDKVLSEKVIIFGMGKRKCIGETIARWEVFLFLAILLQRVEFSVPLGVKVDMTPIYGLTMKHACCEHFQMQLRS

[4] = system: DSS-induced ulcerative colitis mice; assay: DSS-induced ulcerative colitis in mice; type: in vivo, mouse
LPS-induced ALI mice = assay: LPS-induced acute lung injury in mice; type: in vivo, mouse

## Oc1ccc(/C=C/c2cc(O)cc(O)c2)cc1 [resveratrol]
[1]
  cytotoxicity: weak cytotoxicity
[2]
  blocking of HDB-EtCl red-channel fluorescent signals in cells: completely blocked
[3]
  inhibition of HDB-EtCl O-dechloroethylation in HLMs: completely blocked

## O=C(O)c1cc(/N=N/c2ccc(S(=O)(=O)Nc3ccccn3)cc2)ccc1O [SASP, salazosulfapyridine]
[4]; ELISA, oral administration
  elevated IL-1β, TNF-α, IL-6, IFN-γ in intestinal tissues: effectively mitigated
[4]; LAC-7 20 and 40 mg/kg, SASP 200 mg/kg
  colon histopathological abnormities (H&E): largely restored
[4]; LAC-7 20 and 40 mg/kg, SASP 200 mg/kg, oral
  shortening of colon length by DSS: significantly reversed
[4]; immunofluorescence
  expression of tight junction proteins Occludin and ZO-1 in intestine: significantly increased

## C[C@@H]1C[C@H]2[C@@H]3CCC4=CC(=O)C=C[C@]4(C)[C@@]3(F)[C@@H](O)C[C@]2(C)[C@@]1(O)C(=O)CO [Dex, dexamethasone]
LPS-induced ALI mice; LAC-7 20 and 40 mg/kg, Dex 5 mg/kg
  lung injury scores: significantly reduce
LPS-induced ALI mice; mouse, in vivo
  Occludin immunofluorescence intensity in lung: enhanced
LPS-induced ALI mice; oral administration
  ZO-1 immunofluorescence intensity in lung: significantly increased
LPS-induced ALI mice; vs LPS-induced ALI mice
  total cell count in BALF: significantly decreased

## Nn1nnc2ccccc21 [ABT, 1-aminobenzotriazole]
[3]
  inhibition of HDB-EtCl O-dechloroethylation in HLMs: completely blocked
